These results are taken from ChEMBL document CHEMBL1857833, “Screening and optimization of specific chemical series against human African Trypanosomiasis (HAT)”.

The subject of series [1] is Trypanosoma brucei. Nature of the series: DNDI: Mean survival time in days (MSD) of mice after intraperitoneal injection of Human African Trypanosomiasis (HAT), EATRO 110, in vivo at 20 mg/kg/day for 4 days. The format is functional, Mus musculus.
The nature of series [2]: DNDI: Cytotoxicity against L929 mouse fibroblasts, 72 hour. Type of series: toxicity, cell-based. Particulars: mouse, L929 mouse fibroblasts.
Series [3] relates to Trypanosoma brucei. Nature of the series: DNDI: Inhibition of Human African Trypanosomiasis, SBRI 427, in vitro. The format is functional, organism-based.
The nature of the next series: in vitro. The note with it: mouse, liver microsomes, t (1 / 2). On the technique in general: Liver microsomes are vesicles of endoplasmic reticulum, rich in cytochrome P450 enzymes.
For series [4] the following is noted: mouse, microsomes, 1 µM.
Description: DNDI: in vitro intrinsic clearance in mouse liver microsomes at a concentration of 1uM
Series [5] can be described thus: DNDI: in vitro intrinsic clearance in mouse liver microsomes at a concentration of 10uM. The format is ADME, Microsome. Particulars: read-out: CLint in vitro.
Series [6] can be described thus: DNDI: Lipophilicity measured in Chromatographic hydrophobicity index (CHI) assay, pH 7.4. The note with it: buffer. The format is physicochemical.
Series [7] in a line: DNDI: in vitro intrinsic clearance in human liver microsomes at a concentration of 10uM. The format is ADME, Microsome.
Series [8] can be described thus: DNDI: half life in mouse liver microsomes at a concentration of 10uM. The format is ADME, Microsome.
The nature of series [9]: DNDI: half life in human liver microsomes at a concentration of 10uM. Type of series: ADME, Microsome.
Series [10] can be described thus: DNDI: Cytotoxicity against L929 mouse fibroblasts, CYTO-SP, 24 hour. The format is toxicity, cell-based. The note with it: mouse, L929 mouse fibroblasts.
A short description of series [11]: DNDI: Solubility in phosphate buffered saline at pH7.4 measured by nephelometry at room temperature (NEPH-RT). Type of series: physicochemical. The note with it: pH 7.4.
Another series deals with Leishmania donovani. Nature of the series: DNDI: Inhibition of formation of Leishmania donovani (strain MHOM/ET/67/L82) axenic amastigotes, in vitro. The format is functional, organism-based.
Series [12] can be described thus: DNDI: Solubility in phosphate buffered saline at pH7.4 measured by optical density (turbidimetry) at room temperature (OD-RT). Type of series: physicochemical. Particulars: pH 7.4.
The test system of a further series is Trypanosoma cruzi. Nature of the series: DNDI: Inhibition of Chagas Disease parasite Trypanosoma cruzi (Tulahuen LacZ, Clone C4), in vitro. The format is functional, organism-based.
Series [13] has as its system Trypanosoma brucei rhodesiense. The series is described as follows: DNDI: Inhibition of Human African Trypanosomiasis (HAT), STIB 900, in vitro. The format is functional, organism-based.
Series [14] can be described thus: DNDI: Cytotoxicity against L-6 rat myoblasts from skeletal muscle cells. Type of series: toxicity, cell-based, L6. The note with it: L-6 rat skeletal muscle myoblasts.
A further series has as its system Plasmodium falciparum. The series is described as follows: DNDI: Inhibition of the malaria parasite Plasmodium falciparum, in vitro. Particulars: K1. The format is functional, organism-based.
The subject of series [15] is Trypanosoma brucei. The series is described as follows: DNDI: Inhibition of Human African Trypanosomiasis, Cross 22, in vitro. Type of series: functional, organism-based.
The mark [16] stands for this setting: Trypanosoma brucei, SBRI 427, read-out: IC50.

≈ marks a conversion by molar mass, not a printed value. Where “and” joins values, the source holds several entries; their conditions need not be identical. Equal values may be shown once. A value given as a limit tells only on which side of the number the result lay.

Description for in vitro: DNDI: half life in mouse liver microsomes at a concentration of 1uM

A word on the IC50: it is the concentration that gives 50% inhibition. Turning to `CCc1ccc(Oc2ncccc2/C(=N\O)NC2CCCCC2)cc1`, the MSD in the series on Trypanosoma brucei [1] worked out at 4 days. For the same compound, the concentration for half-maximal inhibition (IC50) at 72 h in series [2] is greater than 10 µg/mL. In addition, the IC50 with Trypanosoma brucei [3] (setting [16]) worked out at 0.09 µg/mL (≈ 0.265 µM).

For orientation: half-life means the time in which the quantity being followed falls by half. `Cc1ccc(/C(=N/O)NC2CCCCC2)c(Oc2ccc(C(C)(C)C)cc2)n1` registered an MSD in the series with Trypanosoma brucei [1] of 4.5 days. Half-maximal inhibition in [2] (IC50 at 72 h) was put at 4.06 µg/mL (≈ 10.6 µM). This compound came in with a half-life at 1 µM in “in vitro” of 8.61 min. The same compound registered a CLint in vitro in series [4] of 98.83 µL/min/mg. In addition, the IC50 with Trypanosoma brucei [3] (setting [16]) was greater than 5 µg/mL.

For orientation: chromatographic logD means lipophilicity estimated from chromatographic retention. A low value points to lower lipophilicity. In the case of `CCCCCC(C)NCc1coc(-c2cccc(OC)c2)n1` (centres undefined), in series [5], the microsomal CLint at 10 µM stood at 53 µL/min/mg. For the same compound, in [6], the chromatographic logD is 4.32. Moreover, in series [7], the CLint in vitro turned out to be 23 µL/min/mg. Also, it took 6.95 µg/mL (≈ 23 µM) to reach half-maximal inhibition in series [2] (IC50 at 72 h). For the same compound, the IC50 in the series with Trypanosoma brucei [3] (setting [16]) is 2.26 µg/mL (≈ 7.47 µM). Further, the half-life at 10 µM in [8] is 54 min; in [9] it was 127 min. In series [10], this compound yielded an IC50 at 24 h of 18 µg/mL (≈ 59.5 µM).

In the case of `CCc1ccc(N/C(=N/O)c2ccc(OC)cc2)cc1`, the MSD with Trypanosoma brucei [1] is 4.5 days. In the series on Trypanosoma brucei [3] (setting [16]), the IC50 amounted to 3.69 µg/mL (≈ 13.6 µM). This compound also registered an IC50 at 24 h in series [10] greater than 50 µg/mL.

Regarding `CC(C)(C)c1ccc(Oc2ncccc2/C(=N/O)Nc2cccc(F)c2)cc1`, the MSD in the series with Trypanosoma brucei [1] is 4 days. The compound further displayed a 50% inhibitory concentration (IC50) at 72 h in series [2] of 3.39 µg/mL (≈ 8.93 µM). In “in vitro”, this compound had a half-life at 1 µM of 23.7 min. This compound gave a CLint in vitro in series [4] of 35.83 µL/min/mg. Moreover, the half-maximal inhibitory concentration (IC50) in the series with Trypanosoma brucei [3] (setting [16]) was greater than 5 µg/mL.

`CCc1ccc(Oc2ncccc2/C(=N\O)NC2CCCCC2O)cc1` (centres undefined) gave an MSD in the series with Trypanosoma brucei [1] of 4 days. Besides, the concentration for half-maximal inhibition (IC50) at 72 h in series [2] is greater than 10 µg/mL. Moreover, the half-life at 1 µM in “in vitro” stood at 17 min. The compound also returned a CLint in vitro in series [4] of 51 µL/min/mg. Besides, the IC50 in the series with Trypanosoma brucei [3] (setting [16]) was greater than 5 µg/mL.

The compound `CCc1ccc(Oc2ncccc2/C(=N\O)NC2CCCC[C@@H]2N)cc1` (some centres undefined) came in with an MSD in the series with Trypanosoma brucei [1] of 4 days. Also, in series [2], the concentration for half-maximal inhibition (IC50) at 72 h is greater than 10 µg/mL. For the same compound, in the series “in vitro”, the half-life at 1 µM came to 116 min. The compound further registered a CLint in vitro in [4] of 7 µL/min/mg. Besides, the 50% inhibitory concentration (IC50) in the series on Trypanosoma brucei [3] (setting [16]) is greater than 5 µg/mL.

One may read the kinetic solubility as the concentration staying in solution when a stock, usually in DMSO, is diluted into the medium. Regarding `COc1ccc(CNC(CCc2ccccc2)c2nc(Cc3ccccc3)c(N3CCCCC3)o2)cc1OC` (centres undefined), the MSD in the series with Trypanosoma brucei [1] came to 4 days. This compound also gave a chromatographic logD in series [6] greater than 5.2. Besides, the half-inhibitory concentration (IC50) at 72 h in [2] was greater than 10 µg/mL. This compound also registered a half-life at 1 µM in the series “in vitro” of 2 min. In series [4], the CLint in vitro amounted to 354 µL/min/mg. Further, in the series with Trypanosoma brucei [3] (setting [16]), the IC50 came out at 2.54 µg/mL (≈ 4.83 µM). Also, the solubility (kinetic) in series [11] came out at 3 µM (≈ 1.58 µg/mL).

For the compound `CCCCCC(C)NCc1coc(-c2ccc(C)cc2)n1` (centres undefined), the IC50 with Leishmania donovani came to 13.6 µg/mL (≈ 47.6 µM); in the series on Trypanosoma cruzi, 15.7 µg/mL (≈ 54.8 µM); in series [13], 0.582 µg/mL (≈ 2.03 µM); in series [14] it was 12.6 µg/mL (≈ 43.9 µM); with Plasmodium falciparum, 1.83 µg/mL (≈ 6.39 µM); in the series on Trypanosoma brucei [3] (setting [16]), 1.95 µg/mL (≈ 6.81 µM). The compound further showed a kinetic solubility in series [12] of 12.5 µM (≈ 3.58 µg/mL). The microsomal CLint at 10 µM in [5] is 31 µL/min/mg. The chromatographic logD in series [6] is 4.66. The IC50 at 72 h in series [2] was determined as 5.76 µg/mL (≈ 20.1 µM). Moreover, the half-life at 10 µM in series [8] was determined as 94 min. Also, in series [10], half-maximal inhibition (IC50 at 24 h) was put at 17 µg/mL (≈ 59.4 µM).

Compound `CCCCCC(C)NCc1coc(-c2cccc(Cl)c2)n1` (centres undefined) had a kinetic solubility in [12] of 12.5 µM (≈ 3.84 µg/mL). Besides, the microsomal CLint at 10 µM in series [5] is 28 µL/min/mg. In [6], this compound yielded a chromatographic logD of 5.02. This compound also displayed an IC50 at 72 h in series [2] of 7.27 µg/mL (≈ 23.7 µM). The half-inhibitory concentration (IC50) in the series on Trypanosoma brucei [3] (setting [16]) was found to be 2.08 µg/mL (≈ 6.78 µM). Also, the half-life at 10 µM in series [8] came out at 103 min. Also, in series [10], 14 µg/mL (≈ 45.6 µM) corresponded to half-maximal inhibition (IC50 at 24 h).

`CCc1ccc(/C(=N/O)NC2CCCCC2)cc1`: the half-inhibitory concentration (IC50) is 11.3 µg/mL (≈ 45.9 µM) in the series on Leishmania donovani; 10.8 µg/mL (≈ 43.7 µM) in the series with Trypanosoma cruzi; 8.75 µg/mL (≈ 35.5 µM) in [13]; 53.8 µg/mL (≈ 218 µM) in series [14]; greater than 5 µg/mL with Plasmodium falciparum; 0.98 µg/mL (≈ 3.98 µM) in the series with Trypanosoma brucei [3] (setting [16]). This compound also had an MSD in the series on Trypanosoma brucei [1] of 4 days. For the same compound, the chromatographic logD in series [6] came to 4.6. Besides, the half-inhibitory concentration (IC50) at 72 h in series [2] is greater than 10 µg/mL. In “in vitro”, this compound returned a half-life at 1 µM of 4 min. The compound also came in with a CLint in vitro in series [4] of 210 µL/min/mg. The compound also gave a kinetic solubility in series [11] of 50 µM (≈ 12.3 µg/mL). Besides, the IC50 at 24 h in series [10] is greater than 50 µg/mL.

Consider `CCCCCC(C)NCc1coc(-c2ccc(C(C)(C)C)cc2)n1` (centres undefined), for which the 50% inhibitory concentration (IC50) was 6.61 µg/mL (≈ 20.1 µM) in the series with Leishmania donovani; 2.8 µg/mL (≈ 8.52 µM) with Trypanosoma cruzi; 0.302 µg/mL (≈ 0.919 µM) in [13]; 3.25 µg/mL (≈ 9.89 µM) in series [14]; 0.694 µg/mL (≈ 2.11 µM) with Plasmodium falciparum; 0.86 µg/mL and 0.42 µg/mL in the series with Trypanosoma brucei [3]. It took 0.49 µg/mL (≈ 1.49 µM) to reach half-maximal inhibition in the series with Trypanosoma brucei [15] (IC50). The IC50 at 72 h in series [2] stood at 1.36 µg/mL (≈ 4.14 µM). The same compound yielded a half-life at 1 µM in “in vitro” of 51 min. The CLint in vitro in [4] was 17 µL/min/mg. The same compound gave an IC50 at 24 h in [10] of 9 µg/mL (≈ 27.4 µM).
